Measured values as given in patent US10597388B2, “Pyridazinone herbicides” (FMC CORPORATION, priority 2014, dated 2020).

Tests used:
Type in all cases: in vivo
[1] = tested on: barnyardgrass (Echinochloa crus-galli); test: Test C greenhouse herbicide test, pre- and postemergence
How it was run: (§1)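 Greenhouse pots; pre-em on seeded loam:sand blend, post-em on 2–18 cm plants (1–4 leaf) in sphagnum peat/vermiculite medium. Formulation: non-phytotoxic solvent + surfactant. Read-out: visual % control (0–100) vs controls at 13–15 d.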

[2] = tested on: blackgrass (Alopecurus myosuroides); test: as above
How it was run: as §1

corn (Zea mays) = test: as above
How it was run: as §1

[3] = tested on: crabgrass, large (large crabgrass, Digitaria sanguinalis); test: as above
How it was run: as §1

[4] = tested on: foxtail, giant (giant foxtail, Setaria faberii); test: as above
How it was run: as §1

[5] = tested on: galium (catchweed bedstraw, Galium aparine); test: as above
How it was run: as §1

[6] = tested on: johnsongrass (Sorghum halepense); test: as above
How it was run: as §1

[7] = tested on: morningglory (Ipomoea coccinea); test: as above
How it was run: as §1

[8] = tested on: oilseed rape (Brassica napus); test: as above
How it was run: as §1

[9] = tested on: pigweed (Amaranthus retroflexus); test: as above
How it was run: as §1

[10] = tested on: ragweed (common ragweed, Ambrosia elatior); test: as above
How it was run: as §1

soybean (Glycine max) = test: as above
How it was run: as §1

[11] = tested on: velvetleaf (Abutilon theophrasti); test: as above
How it was run: as §1

[12] = tested on: waterhemp (common waterhemp, Amaranthus rudis); test: as above
How it was run: as §1

[13] = tested on: wheat (winter wheat, Triticum aestivum); test: as above
How it was run: as §1

kochia (Kochia scoparia) = test: Test C greenhouse herbicide test, postemergence; details: for Plant response rating, Kochia: Postemergence
How it was run: (§2)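 Steps: pot plants in peat-based medium; spray postemergence at 1- to 4-leaf stage; hold in greenhouse 13 to 15 d; score visually against controls from 0 (no effect) to 100 (complete control).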

[14] = tested on: oat, wild (wild oat, Avena fatua); test: Test C greenhouse herbicide test, postemergence; details: for Plant response rating, Oat, Wild: Postemergence
How it was run: as §2

[15] = Postemergence, 31 g ai/ha, 0 to 100 scale (0 no effect, 100 complete control)
[16] = Postemergence, 125 g ai/ha, scale 0 to 100, 0 is no effect, 100 is complete control
[17] = Postemergence, 250 g ai/ha, scale 0 to 100, 0 no effect, 100 complete control, 13 to 15 d
[18] = Preemergence, 31 g ai/ha, scale 0 to 100, 0 is no effect, 100 is complete control
[19] = Preemergence, 62 g ai/ha, scale 0 to 100, 0 is no effect, 100 is complete control
[20] = Preemergence, 125 g ai/ha, scale 0 to 100, 0 is no effect, 100 is complete control
[21] = Preemergence, 250 g ai/ha, scale 0 to 100 (0 no effect, 100 complete control)
[22] = postemergence, 62 g ai/ha, scale 0 to 100, 0 no effect, 100 complete control
[23] = 125 g ai/ha, scale 0 to 100, 0 is no effect, 100 is complete control
[24] = 250 g ai/ha, scale 0 to 100, 0 no effect, 100 complete control, 13 to 15 d

SMILES: Cc1cc(C)c2sc(C)c(-c3c(OC(=O)OCCCl)c(C)nn(C)c3=O)c2c1 [Compound 85]
- Barnyardgrass plant response rating [1, 15]: 25
- Plant response rating, Barnyardgrass [1, 16]: 40
- Plant response rating, Barnyardgrass [1, 17]: 50
- Plant response rating, Barnyardgrass [1, 18]: 35
- Plant response rating, Barnyardgrass [1, 19]: 60
- Plant response rating, Barnyardgrass [1, 20]: 80
- Barnyardgrass plant response rating [1, 21]: 90
- Barnyardgrass plant response rating [1, 22]: 45
- Blackgrass plant response rating [2, 15]: 70
- Plant response rating, Blackgrass [2, 16]: 90
- Plant response rating, Blackgrass [2, 17]: 90
- Plant response rating, Blackgrass [2, 18]: 50
- Plant response rating, Blackgrass [2, 19]: 85
- Plant response rating, Blackgrass [2, 20]: 90
- Blackgrass plant response rating [2, 21]: 90
- Blackgrass plant response rating [2, 22]: 80
- Corn plant response rating (corn (Zea mays); [15]): 0
- Plant response rating, Corn (corn (Zea mays); [16]): 0
- Plant response rating, Corn (corn (Zea mays); [17]): 5
- Plant response rating, Corn (corn (Zea mays); [18]): 0
- Plant response rating, Corn (corn (Zea mays); [19]): 10
- Plant response rating, Corn (corn (Zea mays); [20]): 0
- Corn plant response rating (corn (Zea mays); [21]): 10
- Corn plant response rating (corn (Zea mays); [22]): 0
- Plant response rating, Crabgrass, Large [3, 16]: 40
- Plant response rating, Crabgrass, Large [3, 17]: 45
- Plant response rating, Crabgrass, Large [3, 18]: 80
- Plant response rating, Crabgrass, Large [3, 19]: 85
- Plant response rating, Crabgrass, Large [3, 20]: 80
- Crabgrass, Large plant response rating [3, 21]: 85
- Crabgrass, Large plant response rating [3, 22]: 30
- Plant response rating, Foxtail, Giant [4, 16]: 90
- Plant response rating, Foxtail, Giant [4, 17]: 90
- Plant response rating, Foxtail, Giant [4, 18]: 90
- Plant response rating, Foxtail, Giant [4, 19]: 98
- Plant response rating, Foxtail, Giant [4, 20]: 100
- Foxtail, Giant plant response rating [4, 21]: 100
- Foxtail, Giant plant response rating [4, 22]: 85
- Plant response rating, Galium [5, 16]: 100
- Plant response rating, Galium [5, 17]: 100
- Plant response rating, Galium [5, 18]: 90
- Plant response rating, Galium [5, 19]: 90
- Plant response rating, Galium [5, 20]: 95
- Galium plant response rating [5, 21]: 95
- Galium plant response rating [5, 22]: 100
- Plant response rating, Johnsongrass [6, 16]: 50
- Plant response rating, Johnsongrass [6, 17]: 25
- Plant response rating, Johnsongrass [6, 18]: 40
- Plant response rating, Johnsongrass [6, 19]: 30
- Plant response rating, Johnsongrass [6, 20]: 65
- Johnsongrass plant response rating [6, 21]: 40
- Johnsongrass plant response rating [6, 22]: 15
- Plant response rating, Morningglory [7, 16]: 100
- Plant response rating, Morningglory [7, 17]: 100
- Plant response rating, Morningglory [7, 18]: 85
- Plant response rating, Morningglory [7, 19]: 90
- Plant response rating, Morningglory [7, 20]: 95
- Morningglory plant response rating [7, 21]: 98
- Morningglory plant response rating [7, 22]: 98
- Plant response rating, Oilseed Rape [8, 16]: 10
- Plant response rating, Oilseed Rape [8, 17]: 15
- Plant response rating, Oilseed Rape [8, 18]: 5
- Plant response rating, Oilseed Rape [8, 19]: 85
- Plant response rating, Oilseed Rape [8, 20]: 40
- Oilseed Rape plant response rating [8, 21]: 90
- Oilseed Rape plant response rating [8, 22]: 10
- Plant response rating, Pigweed [9, 16]: 85
- Plant response rating, Pigweed [9, 17]: 90
- Plant response rating, Pigweed [9, 18]: 100
- Plant response rating, Pigweed [9, 19]: 100
- Plant response rating, Pigweed [9, 20]: 100
- Pigweed plant response rating [9, 21]: 100
- Pigweed plant response rating [9, 22]: 85
- Plant response rating, Ragweed [10, 16]: 85
- Plant response rating, Ragweed [10, 17]: 90
- Plant response rating, Ragweed [10, 18]: 80
- Plant response rating, Ragweed [10, 19]: 90
- Plant response rating, Ragweed [10, 20]: 98
- Ragweed plant response rating [10, 21]: 98
- Ragweed plant response rating [10, 22]: 85
- Plant response rating, Soybean (soybean (Glycine max); [16]): 0
- Plant response rating, Soybean (soybean (Glycine max); [17]): 15
- Plant response rating, Soybean (soybean (Glycine max); [18]): 0
- Plant response rating, Soybean (soybean (Glycine max); [19]): 0
- Plant response rating, Soybean (soybean (Glycine max); [20]): 0
- Soybean plant response rating (soybean (Glycine max); [21]): 0
- Soybean plant response rating (soybean (Glycine max); [22]): 0
- Plant response rating, Velvetleaf [11, 16]: 85
- Plant response rating, Velvetleaf [11, 17]: 95
- Plant response rating, Velvetleaf [11, 18]: 50
- Plant response rating, Velvetleaf [11, 19]: 80
- Plant response rating, Velvetleaf [11, 20]: 85
- Velvetleaf plant response rating [11, 21]: 90
- Velvetleaf plant response rating [11, 22]: 85
- Plant response rating, Waterhemp [12, 16]: 85
- Plant response rating, Waterhemp [12, 17]: 85
- Plant response rating, Waterhemp [12, 18]: 60
- Plant response rating, Waterhemp [12, 19]: 80
- Plant response rating, Waterhemp [12, 20]: 90
- Waterhemp plant response rating [12, 21]: 100
- Waterhemp plant response rating [12, 22]: 65
- Plant response rating, Wheat [13, 16]: 0
- Plant response rating, Wheat [13, 17]: 0
- Plant response rating, Wheat [13, 18]: 0
- Plant response rating, Wheat [13, 19]: 0
- Plant response rating, Wheat [13, 20]: 0
- Wheat plant response rating [13, 21]: 5
- Wheat plant response rating [13, 22]: 0
- Plant response rating, Kochia (kochia (Kochia scoparia); [23]): 60
- Plant response rating, Kochia (kochia (Kochia scoparia); [24]): 70
- Kochia plant response rating (kochia (Kochia scoparia); [22]): 70
- Plant response rating, Oat, Wild [14, 23]: 95
- Plant response rating, Oat, Wild [14, 24]: 90
- Oat, Wild plant response rating [14, 22]: 90
